Data on nine compounds can be found in patent US20060100291A1, “Antibacterial compounds” (priority 2001, published 2006).

In general, zone of inhibition refers to the size of the clear area around the sample on an inoculated plate. Broadly, the melting point is the temperature of the solid-liquid transition.

The subject of series [1] is Bacillus subtilis (ATCC strain 19659). Kind of series: Disc diffusion assay. The format is cell-based. The settings on record: for BS activity: width of zone of growth inhibition / zone of inhibition at 60 µg/disc: disc assay dosed at 60 μg/disc, 24 h; for zone of inhibition at 60 µg/disc: read-out: BS activity: width of zone of growth inhibition. As to the method:
The compounds of Examples 1 to 7 were also tested against another Gram-positive bacterium, Bacillus subtilis (ATCC strain 19659), in disc diffusion assays. […] The positive control in this assay was the clinically proven antimicrobial agent chloramphenicol (30 μg/disc), which gave a 12 mm zone.
(In general: In agar diffusion tests the substance spreads into inoculated agar from a disc or well.)

The test system of series [2] is Methicillin Resistant Staphylococcus aureus (MRSA) (strain 1126). Kind of series: MIC in Mueller Hinton broth, serial doubling dilutions. The format is cell-based. As for the experimental part: Minimum inhibitory concentrations [MIC] were tested in Mueller Hinton [MH] broth. The human pathogen Methicillin Resistant Staphylococcus aureus (MRSA) (strain 1126) was provided by the University of Otago. Glass vials (30 mL) containing MH broth (10 mL) were inoculated from an actively growing culture and incubated overnight at 37° C. A standardized procedure to suspend each compound in MH broth was used. Each compound (5 mg) was dissolved in ethanol (1 mL). MH broth (9 mL) was then added to the ethanol containing the compound, resulting in stock solution concentrations of 500 μg /mL.
The MIC for each compound was determined by carrying out 3 replicate serial dilutions in Nunc® 48 well microtiter plates. To test the MICs, each compound stock solution was vigorously mixed before I mL was dispensed aseptically by pipette into 3 of the 6 first wells of a microtiter plate. MH broth (0.5 mL) was dispensed into all wells of the microtiter plate except the first row. Serial doubling dilutions were carried out through 12 wells (1½ microtiter plates). Mixing was carried out by repeated pipetting of 100 μL amounts. 500 μL was discarded from the last wells to conserve the […] compound concentration. Each well was inoculated with an aliquot (25 μL) of MRSA suspension diluted by 10^−2. All test and control microtiter plates were incubated at 37° C. and read after 48 h and 72 h.

Series [3] relates to Swiss male mice (Mus musculus). Kind of series: Acute toxicity in mice, intraperitoneal injection. The format is in vivo. To be noted: for acute toxic effects: ip in cottonseed oil, up to 400 mg/kg, observed 6 h plus 18 h. As for the experimental part:
Compound I has been tested in mice for acute toxicity.
A single trial was completed using twenty-five Swiss male mice (Mus musculus), weighing 20 g±2 g. Mice were selected by gender and weight, individually identified and randomly placed in 5 cages of 5 mice each. Mice were injected intraperitoneally with one of five levels of antibiotic [0 (control), 1, 2, 4 and 8 mg/ml]. Cottonseed oil was used as a carrier solution for the test substance. One mL samples were mixed before being injected using 1.0 ml syringes and 21G needles. Mice were observed continuously for 6 hours and any deaths or adverse symptoms recorded. This initial hour observation period was subsequently followed by another 18-hour monitoring period. […] This was also the case for mice injected solely with cottonseed oil. This is in direct contrast to weekly calibration assays using the toxic control saxitoxin dihydrochloride.

In the next series the test system is listera monocytogenes. Kind of series: MIC against Listeria, by similar methods. The format is cell-based.
For series [4], the system named is Enterococcus and S. aureus strains tested in Table 2. Kind of series: Bacteriostatic/bactericidal concentrations (MIC/MBC) over the strains of Table 2. The format is cell-based. To be noted: all strains of Table 2; read-out: Bacteriocidal concentration (MBC). As for the experimental part:
(§1) Minimum inhibitory concentrations (MICs) were determined using a broth microdilution method. Bacterial isolates were inoculated into Todd-Hewitt broth (THB) and incubated at 37 C with shaking (200 rpm) for 18 h. Overnight cultures were diluted to an OD of 0.01 (at […], 1 cm light path) to give a final inoculum for broth microdilution of OD 0.005. Doubling dilutions of the test compounds were prepared in THB in microtitre plates. Tween 80 (Sigma) was added at a final concentration of 14 % to enhance solubility. The range of concentrations tested (with doubling dilutions) was 16 μg/mL to 0.063 μg/mL. Microtitre plates were incubated at 37 ° C. for 18 h with gentle shaking. Plates were read using a microplate reader (Multiskan Ascent, Labsystems), measuring the OD at 595 nm. Minimum bactericidal concentrations (MBCs) were determined by placing 5 μL of culture from wells without growth onto THB plates and incubating at 37° C. for 18 h. The MBC was the lowest concentration without growth from the drop of culture.

In series [5] the test system is Enterococcus faecalis 8A-25 Vancomycin resistant (VRE, vanA). Kind of series: Broth microdilution MIC (THB). The format is cell-based. To be noted: E. faecalis 8A-25 vancomycin resistant (VRE, vanA), three experiments. As for the experimental part: as §1
(In general: Dilution methods test growth across graded concentrations, often in twofold steps.)

In series [6] the test system is S. aureus AS92/349 Mupirocin resistant. Kind of series: Broth microdilution MIC (THB). The format is cell-based. To be noted: three experiments. As for the experimental part: as §1
Series [7] deals with Enterococcus faecalis ATCC29212 Wild-type (fully susceptible). Kind of series: Broth microdilution MIC (THB). The format is cell-based. To be noted: three experiments. As for the experimental part: as §1
Series [8] relates to S. aureus OUM1126 Oxacillin resistant (MRSA). Kind of series: Broth microdilution MIC (THB). The format is cell-based. To be noted: Staphylococcus aureus, three experiments. As for the experimental part:
as §1

In series [9] the test system is S. aureus ST94/1208 Oxacillin/Gentamicin resistant (cMRSA). Kind of series: Broth microdilution MIC (THB). The format is cell-based. To be noted: Staphylococcus aureus, three experiments. As for the experimental part:
as §1

Series [10] concerns Enterococcus faecalis CD2-49 Gentamicin resistant. Kind of series: Broth microdilution MIC (THB). The format is cell-based. The settings on record: E. faecalis CD2-49 gentamicin resistant, three experiments. As for the experimental part:
as §1

Series [11] has as its system S. aureus ATCC25923 Wild-type (fully susceptible). Kind of series: Broth microdilution MIC (THB). The format is cell-based. To be noted: three experiments. As for the experimental part: as §1
For series [12], the system named is S. aureus PC-3 Vancomycin/Oxacillin resistant (GISA). Kind of series: Broth microdilution MIC (THB). The format is cell-based. The settings on record: Staphylococcus aureus, three experiments. As for the experimental part:
as §1

For series [13], the system named is E. faecium AR99/118 Ampicillin resistant. Kind of series: Broth microdilution MIC (THB). The format is cell-based. To be noted: Enterococcus faecium, three experiments. As for the experimental part: as §1
In series [14] the test system is S. aureus OUM1127 Erythromycin resistant. Kind of series: Broth microdilution MIC (THB). The settings on record: Staphylococcus aureus, three experiments. The format is cell-based. As to the method: as §1
The conditions of series [15]: background statement, organism not given; cited from earlier work.
The mark [16] stands for this setting: MH broth, 37° C., read after 48 h and 72 h, University of Otago strain 1126, read-out: MRSA activity: upper and lower limits of Minimum Inhibitory Concentration.

≈ marks a conversion by molar mass, not a printed value. Entries after “also recorded” stand apart in the source; their conditions may differ. Read-outs that look alike come from different tables or passages of the source.

On to `CCCCCCCCCCCC(=O)C1=C(O)C(CC)(CC)C(=O)C(CC)(CC)C1=O` [Example 6], for which the “BS activity: width of zone of growth inhibition” value in series [1] is 0 mm.
Still for that read-out and setting: the value for “5-hydroxy-4-(1-oxopropylcyclohexl)-2,6,6-tetramethyl-4-cyclohexene-1,3-dione [Example 5]” was 12 mm.
With `CCCCCCCCCCCC(=O)C1=C(O)C(C)(C)C(=O)C(C)(CC=C(C)C)C1=O` (centres unmarked) [Example 7, 5-hydroxy-4-(1-oxododecyl)-2-prenyl-2,6,6trimethyl-4-cyclohexene-1,3-dione], the zone of inhibition at 60 µg/disc in series [1] (Bacillus subtilis, ATCC19659) was 0 mm. Also, the MIC in series [2] (setting [16]) was in the range of 1 to 2 µg/mL (≈ 2.39 to 4.78 µM).
Regarding `CCCCCCCCCCCC(=O)C1=C(O)C(C)(C)C(=O)C(C)(C)C1=O` [Example 1, 5-hydroxy-4-(1-oxododecyl)-2,2,6,6-tetramethyl-4-cyclohexene-1,3-dione], in series [1] (Bacillus subtilis, ATCC19659), the zone of inhibition at 60 µg/disc came out at 3 mm. Besides, the mouse deaths entry in series [3] (ip in cottonseed oil, 1, 2, 4 and 8 mg/ml, 1 mL) is reported as “no mouse deaths were recorded”. In addition, the acute toxic effects result in series [3] (listed as Compound I) was “no toxic effects; also recorded: no adverse toxic symptoms”; in series [3] (listed as Example I), “not toxic to mice”. The MIC is below 3.9 µg/mL in the series with listera monocytogenes; 0.5 to 1 µg/mL (≈ 1.37 to 2.74 µM) in [2] (setting [16]); 1 µg/mL (≈ 2.74 µM) in series [5]; 1 µg/mL (≈ 2.74 µM) in [6] (Staphylococcus aureus, read-out: MIC); 2 µg/mL (≈ 5.49 µM) in series [6]; 0.5 µg/mL (≈ 1.37 µM) in [7] (E. faecalis ATCC29212 wild-type). For the same compound, the MIC stood at 1 µg/mL (≈ 2.74 µM) in series [7] (Enterococcus faecalis, ATCC29212, E. faecalis ATCC29212 wild-type, read-out: MIC); 1 µg/mL (≈ 2.74 µM) in [8]; 1 µg/mL (≈ 2.74 µM) in series [9]; 0.5 µg/mL (≈ 1.37 µM) in series [10]; 1 µg/mL (≈ 2.74 µM) in series [10] (Enterococcus faecalis, read-out: MIC); 1 µg/mL (≈ 2.74 µM) in [11] (S. aureus ATCC25923 wild-type). Further, the MIC in series [11] (Staphylococcus aureus, ATCC25923, S. aureus ATCC25923 wild-type, read-out: MIC) is 2 µg/mL (≈ 5.49 µM); in series [12], 2 µg/mL (≈ 5.49 µM); in [13] it was 2 µg/mL (≈ 5.49 µM); in [14] it was 1 µg/mL (≈ 2.74 µM). In series [4], the MBC is at least 8 µg/mL.
`CCCCCCCCCC(=O)C1=C(O)C(C)(C)C(=O)C(C)(C)C1=O` [Example 2, 5-hydroxy-4-(1-oxodecyl)-2,2,6,6,-tetramethyl-4-cyclohexene-1,3-dione]: in series [1], the “BS activity: width of zone of growth inhibition” value amounted to 7 mm.
As to `O=C(N[C@H](CO)[C@H](O)c1ccc([N+](=O)[O-])cc1)C(Cl)Cl` [chloramphenicol, reference compound], the zone of inhibition at 30 µg/disc in series [1] (Bacillus subtilis, ATCC19659, positive control, 30 μg/disc, read-out: width of zone of inhibition) worked out at 12 mm.
Take `CC1(C)C(=O)C(C2(C=O)CCCCC2)=C(O)C(C)(C)C1=O` [Example 4, 5-hydroxy-4(1-oxomethylcyclohexyl)-2,2,6,6-tetramethyl-4-cyclohexene-1,3dione]: the melting point was 47.8 °C. Moreover, in [1] (Bacillus subtilis, ATCC19659), the zone of inhibition at 60 µg/disc is 0 mm. Besides, the MIC in [2] (setting [16]) lay within 15.6 to 62.5 µg/mL (≈ 53.4 to 214 µM).
For `CN[C@H](CC(C)C)C(=O)N[C@H]1C(=O)N[C@@H](CC(N)=O)C(=O)N[C@H]2C(=O)N[C@H]3C(=O)N[C@H](C(=O)N[C@H](C(=O)O)c4cc(O)cc(O)c4-c4cc3ccc4O)[C@H](O)c3ccc(c(Cl)c3)Oc3cc2cc(c3O[C@@H]2O[C@H](CO)[C@@H](O)[C@H](O)[C@H]2O[C@H]2C[C@](C)(N)[C@H](O)[C@H](C)O2)Oc2ccc(cc2Cl)[C@H]1O` [vancomycin, reference compound], the MIC in series [2] (read-out: MRSA activity: upper and lower limits of Minimum Inhibitory Concentration) was 1.6 to 3.1 µg/mL (≈ 1.1 to 2.14 µM); in series [15], “approximately 2 μg/ml”.
`CCCCCCCCCCCCCCCC(=O)C1=C(O)C(C)(C)C(=O)C(C)(C)C1=O` [Example 3, 5-hydroxy-4(1-oxohexadecyl)-2,2,6,6-tetramethyl-4-cyclohexene-1,3-dione] had a melting point of 39 °C. Moreover, the zone of inhibition at 60 µg/disc in series [1] (Bacillus subtilis, ATCC19659) was found to be 0 mm. Also, the MIC in [2] (setting [16]) lay in the range of 2 to 7.8 µg/mL (≈ 4.75 to 18.5 µM).
